# Laboratory results taken from patent US7592025B2, “Vehicles for oral care with magnolia bark extract” (GIC Innovations Company, priority 2005, dated 2009).
# What was measured:
# [1] = system: bacteria from freshly-collected stimulated whole saliva (plaque biofilm); assay: Mixed culture saliva biofilm on saliva-coated hydroxyapatite discs, timed exposure to actives; type: cell-based; conditions: for pH (of medium): second series (Table 7)
# Description: Although useful to show the comparative effect of Magnolia Bark Extract on biofilm formation and MIC growth, the foregoing test procedure may not effectively mimic the in vivo exposure of an oral care product to a developing plaque biofilm. In an in vivo situation, the active could be exposed to the plaque for a defined period of time at a set frequency (for example, for 5 minutes, three times a day). Therefore, a series of comparative experiments were conducted to mimic the in vivo use of potential active ingredients. To perform the tests the saliva compositions listed below in Tables 2 and 3 were prepared.
# A mixed culture system that utilizes the bacteria from freshly-collected stimulated whole saliva was used. Saliva cell pellets were used to inoculate saliva-coated hydroxyapatite (S-HA) discs. The discs were placed in 24-well cell culture plates and incubated for up to 3 days. Biofilms were exposed to actives on days 2 and 3 (starting at 18 hours), and quantified on day 4. The number of bacteria was determined by spectrophotometric absorbance or optical density (OD) at 600 nm. The five phases of the experiment were: pellicle formation; bacterial attachment; biofilm growth; exposure to actives; and bacterial enumeration.
# To form the pellicles, HA Discs were ultrasonically washed in deionized water and air-dried, then autoclaved. The discs were placed in a 24-well plate with 1 ml 50% sterile saliva (1 part sterile whole saliva: 1 part saliva buffer, filter sterilize after preparation) for 2 hours on slow agitation at room temperature. […]
# After overnight incubation (day 2), discs were exposed to controls and actives. […] On day 4 the discs were removed from the medium, the medium pH was measured to obtain an indication of metabolic activity, and the discs were placed into tubes with 2.5 ml PBS, vortexed for 20 sec, and then placed into the ultrasonic bath for another 20 sec. The suspension was transferred into cuvettes and the bacterial cell density determined by OD measurements at 600 nm. […]
# incubated saliva = assay: MIC of surface active agents and emulsifiers by two-fold serial dilution in nutrient broth; type: cell-based; conditions: for germ-kill efficacy (in words): assessment of Table 9 results; for MIC (ppm): incubated saliva, 24 hours at 37° C.
# Description: (§1) To evaluate the germ-kill efficacy and synergist effect when two or more germ-kill actives are combined, testing was performed to determine the ratio of MBE to surface active agent. The germ-kill active and/or surface active agent were dissolved in ethanol or sterile water to give an initial concentration 0.1% to 1%. The solution was diluted with a nutrient broth to give an initial concentration of 0.05% to 0.5%, which was then serially diluted two-fold so that each subsequent dilution contained 50% of the compound concentration of the previous dilution while maintaining a constant level of nutrients for each dilution. These dilutions were inoculated with representative oral microorganisms, or incubated saliva, and incubated for 24 hours at 37° C. For each surface active agent, the lowest dilution that was not turbid was registered as the MIC. The MBC was determined by transferring 10 microliter of liquid from non-turbid tubes to fresh growth media and incubated for 48 hours.
# S. mutans = assay: MIC and fractional inhibitory index (FIC) of combinations by two-fold serial dilution; type: cell-based, Streptococcus mutans; conditions: 24 hours at 37° C., ratio as in label
# Description: as §1
# (1) where an FIC value of less than 1.0 is synergistic, an FIC between 1.0 and 2.0 is additive, and an FIC greater than 2.0 is antagonistic.
Compound,germ-kill efficacy (in words) (incubated saliva),MIC (ppm) (incubated saliva),further results
"[H]/N=C(\N/C(=N/[H])NCCCCCCNC(=N)NC(=N)Nc1ccc(Cl)cc1)Nc1ccc(Cl)cc1 [CHX, Chlorhexidine]",–,–,"pH (of medium, indication of metabolic activity) ([1]; CHX 0.12%, exposure one minute two times a day, day 4): 8.8; pH (of medium) ([1]; CHX 0.1% (1000 ppm)): 8.8"
Cocamidopropyl Betaine,good,–,–
Sucrose Stearate,weak or non,>500,–
"CCCCCCCCCCCC(=O)OCCOCCOCCOCCOCCOCCOCCOCCOCCOCCOCCOCCOCCOCCOCCOCCOCCOCCOCCOCCOCC(OCCOCCOCCOCCOCCOCCOCCOCCOCCOCCOCCOCCOCCOCCOCCOCCOCCOCCOCCOCCO)C1OCC(OCCOCCOCCOCCOCCOCCOCCOCCOCCOCCOCCOCCOCCOCCOCCOCCOCCOCCOCCOCCO)C1OCCOCCOCCOCCOCCOCCOCCOCCOCCOCCOCCOCCOCCOCCOCCOCCOCCOCCOCCOCCO (stereo not shown) [Tween 20, Polysorbate 20]",weak or non,–,–
"N=C(NCCCCCCNC(=N)NC(=N)Nc1ccc(Cl)cc1)NC(=N)Nc1ccc(Cl)cc1.O=C(O)[C@H](O)[C@@H](O)[C@H](O)[C@H](O)CO.O=C(O)[C@H](O)[C@@H](O)[C@H](O)[C@H](O)CO [Chlorhexidine gluconate, reference compound]",–,2,MIC/ppm (S. mutans): 2 ppm
Sucrose Distearate,weak or non,>500,–
Sodium Stearoyl Lactylate,weak or non,>3000,–
Sodium Brasslate,moderate,500,–
"CCCCCCCCCCCCOS(=O)(=O)[O-].[Na+] [SLS, Sodium Lauryl Sulfate]",good,–,pH (of medium) ([1]; SLS 1000 ppm): 5.7
